Measured values: US9612237B2, “Ritalinic acid immunoassay” (Randox Laboratories Limited, priority 2013, dated 2017)
Where a name gives a salt, the structure may show the parent alone.

test system: antisera generated in response to immunogen of Example 11; test: Competitive chemiluminescent biochip immunoassay, antisera raised against immunogen of Example 11, conjugate of Example 12; type: binding, sheep; settings: not given

Compound	Concentration exhibiting no cross-reactivity
CC(=O)Nc1ccc(O)c(SC[C@H](N)C(=O)O)c1.O=C(O)C(F)(F)F [3-cysteinylacetaminophen trifluoroacetic acid salt]	250 µg/mL
CC(=O)Nc1ccc(OS(=O)(=O)[O-])cc1.[K+] [4-acetaminophen sulphate potassium salt]	250 µg/mL
CN1CCCC1c1cccnc1 (single isomer, unassigned; (-)) [(−)-nicotine]	22 µg/mL
CC(=O)Nc1ccc(O)c(SC[C@H](NC(C)=O)C(=O)[O-])c1.[Na+] [3-(N-acetyl-L-cystein-s-yl) acetaminophen sodium salt]	250 µg/mL
Cl.NC1CCC(c2ccc(Cl)c(Cl)c2)c2ccccc21 (centres unmarked) [N-desmethyl sertraline HCl]	10 µg/mL

same assay, conditions: biochip; relative to methylphenidate = 100

Compound	% cross reactivity
CCOC(=O)[C@@H](c1ccccc1)[C@H]1CCCCN1.Cl (racemic) [rac-erythro-ethylphenidate HCl]	1.9%

same assay, conditions: value is the concentration at which no cross-reactivity was exhibited

Compound	Concentration exhibiting no cross-reactivity
COc1ccc2c3c1O[C@H]1C(=O)CC[C@H]4[C@@H](C2)N(C)CC[C@]314 [hydrocodone]	10 µg/mL
COc1ccc2c(c1)[C@]13CCCC[C@@H]1[C@H](C2)N(C)CC3 [dextromethorphan hydrobromide monohydrate]	10 µg/mL
COc1cccc(C2(O)CCCCC2CN)c1.Cl (racemic) [rac N-bisdesmethyl tramadol HCl]	0.18 µg/mL
O=C(O)c1cccc(O)c1O [2,3-dihydroxy benzoic acid]	250 µg/mL
C[C@H](N)Cc1ccccc1 [D-amphetamine]	10 µg/mL
CN(C)CCC[C@]1(c2ccc(F)cc2)OCc2cc(C#N)ccc21.O=C(O)C(=O)O [(R)-citalopram oxalate]	1.5 µg/mL
CCN(CC)C(=O)[C@@H]1C=C2c3cccc4[nH]cc(c34)C[C@H]2N(C)C1 [LSD]	10 µg/mL
CN[C@@H](C)Cc1ccccc1 [MAMP]	2.5 µg/mL
CC(=O)Nc1ccc(OC(=O)c2ccccc2OC(C)=O)cc1 [benorylate HCl]	250 µg/mL
O=C[C@H](O)[C@@H](O)[C@H](O)[C@H](O)C(=O)O [D-glucuronic acid]	60 µg/mL
c1ccc(CN2CCNCC2)cc1 [1-benzylpiperiazine]	10 µg/mL
CC(=O)Oc1ccc2c3c1O[C@H]1[C@@H](OC(C)=O)C=C[C@H]4[C@@H](C2)N(C)CC[C@@]341 [heroin]	10 µg/mL
CCCCCc1cc(O)c2c(c1)OC(C)(C)[C@@H]1CCC(C)=C[C@@H]21 [delta-9-THC]	10 µg/mL
CC(=O)N=C1C=CC(=O)C=C1 [N-acetylbenzoquinomeimine]	125 µg/mL
CC(C)Cc1ccc(CC(=O)O)cc1 [ibufenac]	250 µg/mL
O=C(O)c1ccccc1 [benzoic acid]	250 µg/mL
CC(=O)Nc1ccc(O[C@@H]2O[C@H](C(=O)[O-])[C@@H](O)[C@H](O)[C@H]2O)cc1.[Na+] [4-acetamidophenyl β-D-glucuronide sodium salt]	250 µg/mL
O=C(Oc1ccccc1C(=O)O)c1ccccc1O [salsalate]	250 µg/mL
O=c1n(CCCN2CCN(c3cccc(Cl)c3)CC2)nc2ccccn12 [trazodone HCl]	10 µg/mL
CCOc1ccc(N)cc1 [p-phenetidine]	106.35 µg/mL
CN1CC[C@]23CCCC[C@H]2[C@H]1Cc1ccc(O)cc13 [levorphanol]	0.25 µg/mL
salicylic acid B-D glucuronide	125 µg/mL
O=C1Nc2ccc(Cl)cc2C(c2ccccc2Cl)=NC1O (centres unmarked) [lorazepam]	3 µg/mL
